Source: article PMC3840065, “Structural Insights into the Mechanism for Recognizing Substrate of the Cytochrome P450 Enzyme TxtE” (PLoS ONE, 2013)

How the values were obtained:
Test in all cases: UV-vis difference titration (type I shift, […] nm)
Type in all cases: binding
[1] = target: T1, TxtE (Streptomyces scabiei, UniProt C9ZDC6, Y89F)
T1 construct: full length, 406 residues, pET-28a, N-terminal His-tag with thrombin site (tag kept), E. coli Rosetta(DE3) pLysS, monomer in solution

[2] = target: T2, TxtE (Streptomyces scabiei, UniProt C9ZDC6)
T2 construct: full length, 406 residues, pET-28a, N-terminal His-tag with thrombin site (tag kept), E. coli Rosetta(DE3) pLysS, monomer in solution
T2 sequence (C9ZDC6 entry or part of it): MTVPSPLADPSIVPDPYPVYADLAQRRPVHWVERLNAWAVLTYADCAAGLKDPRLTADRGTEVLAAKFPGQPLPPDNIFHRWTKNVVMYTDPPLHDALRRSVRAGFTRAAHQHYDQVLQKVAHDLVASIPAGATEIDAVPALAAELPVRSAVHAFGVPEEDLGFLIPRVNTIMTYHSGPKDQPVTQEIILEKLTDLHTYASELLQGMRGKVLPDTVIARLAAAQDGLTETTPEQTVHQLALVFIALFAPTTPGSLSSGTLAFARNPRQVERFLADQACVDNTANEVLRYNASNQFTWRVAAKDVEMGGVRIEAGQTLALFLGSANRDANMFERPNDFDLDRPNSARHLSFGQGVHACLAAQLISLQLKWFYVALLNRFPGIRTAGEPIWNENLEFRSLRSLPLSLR

[3] = target: T3, TxtE (Streptomyces scabiei, UniProt C9ZDC6, N293L)
T3 construct: full length, 406 residues, pET-28a, N-terminal His-tag with thrombin site (tag kept), E. coli Rosetta(DE3) pLysS, monomer in solution
T3 sequence (C9ZDC6 whole entry N293L): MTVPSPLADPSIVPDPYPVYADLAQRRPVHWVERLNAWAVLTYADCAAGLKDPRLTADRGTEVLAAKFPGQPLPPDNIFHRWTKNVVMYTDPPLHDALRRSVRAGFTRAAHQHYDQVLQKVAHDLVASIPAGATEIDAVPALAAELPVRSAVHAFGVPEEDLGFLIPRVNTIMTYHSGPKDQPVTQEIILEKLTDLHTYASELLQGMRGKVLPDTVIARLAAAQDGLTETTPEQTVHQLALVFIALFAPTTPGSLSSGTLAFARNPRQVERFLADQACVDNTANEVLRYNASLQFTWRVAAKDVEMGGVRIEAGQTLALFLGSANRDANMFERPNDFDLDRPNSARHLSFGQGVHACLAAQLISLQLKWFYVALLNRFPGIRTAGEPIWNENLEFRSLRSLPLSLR

T1 sequence (C9ZDC6 whole entry Y89F): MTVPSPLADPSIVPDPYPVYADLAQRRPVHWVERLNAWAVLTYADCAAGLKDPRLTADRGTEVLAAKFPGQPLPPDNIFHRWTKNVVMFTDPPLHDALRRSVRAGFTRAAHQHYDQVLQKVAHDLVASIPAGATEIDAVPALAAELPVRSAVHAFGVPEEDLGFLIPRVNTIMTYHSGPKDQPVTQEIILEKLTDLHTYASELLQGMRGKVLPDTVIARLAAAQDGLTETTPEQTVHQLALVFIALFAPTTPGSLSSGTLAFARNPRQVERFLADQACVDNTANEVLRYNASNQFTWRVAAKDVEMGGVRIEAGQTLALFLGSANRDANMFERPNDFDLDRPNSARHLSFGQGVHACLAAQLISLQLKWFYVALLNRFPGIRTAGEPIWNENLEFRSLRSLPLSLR

For `N[C@@H](Cc1c[nH]c2ccccc12)C(=O)O` [L-tryptophan], the Kd [1] was 121 ± 4.3 µM, the Kd [2] was 43.6 ± 2.26 µM and the Kd [3] was 1700 ± 280 µM.
